Results from ChEMBL document CHEMBL3987221, “The Australian National University Dept Of Immunology Pathogen Box Compounds Screened” (2018).
Active and inactive are the calls of the source. How the calls were made is not given here.

Experiments:
[1] = target: T1, Porphobilinogen deaminase (Homo sapiens) (UniProt P08397); details: at 100 µM
T1 sequence (whole entry): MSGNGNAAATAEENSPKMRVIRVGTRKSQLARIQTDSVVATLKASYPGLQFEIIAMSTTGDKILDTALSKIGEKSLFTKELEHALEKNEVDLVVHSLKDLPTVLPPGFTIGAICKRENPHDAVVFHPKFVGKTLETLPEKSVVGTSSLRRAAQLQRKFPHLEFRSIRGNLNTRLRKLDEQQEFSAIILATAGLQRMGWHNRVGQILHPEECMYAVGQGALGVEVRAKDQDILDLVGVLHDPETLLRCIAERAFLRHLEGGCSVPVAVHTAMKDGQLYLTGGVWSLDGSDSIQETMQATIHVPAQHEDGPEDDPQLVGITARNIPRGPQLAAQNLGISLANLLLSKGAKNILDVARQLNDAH
Description: Compound was evaluated for the inhibition of human HMBS at 100uM

[2] = target: T2, Ferrochelatase, mitochondrial (Homo sapiens) (UniProt P22830); details: at 10 µM
T2 sequence (whole entry): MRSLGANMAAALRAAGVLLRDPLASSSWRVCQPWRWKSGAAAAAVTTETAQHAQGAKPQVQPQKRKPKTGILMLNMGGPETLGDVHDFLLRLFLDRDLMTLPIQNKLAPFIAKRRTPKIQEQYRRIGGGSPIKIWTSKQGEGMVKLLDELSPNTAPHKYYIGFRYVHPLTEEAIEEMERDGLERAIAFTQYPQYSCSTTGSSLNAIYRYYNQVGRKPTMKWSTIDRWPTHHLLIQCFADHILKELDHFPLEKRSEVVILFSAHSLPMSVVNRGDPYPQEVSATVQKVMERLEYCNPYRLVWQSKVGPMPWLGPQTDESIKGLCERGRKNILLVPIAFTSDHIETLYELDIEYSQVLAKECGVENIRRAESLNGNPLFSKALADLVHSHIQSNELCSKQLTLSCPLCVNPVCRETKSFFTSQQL
Description: Compound was evaluated for the inhibition of human FECH at 10uM

SMILES | inhibition [1] | inhibition [2]
CC1CCCCN1C(=O)NCCc1coc(-c2ccc(F)cc2)n1 (configuration not stated) | inactive | inactive
CS(=O)(=O)N1CCC(CCn2nc(Cc3cccc4ccccc34)c3c(N)ncnc32)CC1 | inactive | inactive
COc1cc(C2=NCCN2)ccc1-c1cn(-c2cccc(C3=NCCN3)c2)nn1 | inactive | inactive
O=C(Nc1ccc(F)c(-c2nc3cc(-c4ccccc4)cnc3[nH]2)c1)N1CCCC1 | inactive | inactive
O=C(NCCN1CCCC1)c1cc(NCCN2CCOCC2)nc2ccc(Cl)cc12 | inactive | inactive
Nc1ncnc2c1c(Cc1cccc3ccccc13)nn2CC1CCNCC1 | inactive | inactive
CC[C@@H]([C@H](C)O)n1ncn(-c2ccc(N3CCN(c4ccc(OC[C@@H]5CO[C@@](Cn6cncn6)(c6ccc(F)cc6F)C5)cc4)CC3)cc2)c1=O | inactive | inactive
COc1ccc(-c2cnc3ccc(NCc4ccc(S(N)(=O)=O)cc4)nn23)cn1 | inactive | inactive
CCc1ccc(C(NCc2nc(N)nc(N(C)C)n2)C(C)C)cc1 (configuration not stated) | inactive | inactive
COc1ccc(C2=NN(C3CCCCCC3)C(=O)C2(C)C)cc1OCc1ccccn1 | inactive | inactive
CC1=NN(c2nc3ccccc3s2)C(=O)C1Cc1cccc2ccccc12 (configuration not stated) | inactive | inactive
c1ccc(Oc2ccc(-c3cncc(-c4ccc5[nH]ccc5c4)n3)cc2)cc1 | inactive | inactive
CN(C(=O)c1cc2c(-c3cncnc3)cccc2[nH]1)c1ccccc1 | inactive | inactive
O=C(Nc1nc(-c2ccccn2)cs1)C1CC1c1ccccc1F (configuration not stated) | inactive | inactive
Nc1ncc(-c2ccc(C(F)(F)F)nc2)cc1-c1ccc(C(F)(F)F)nc1 | inactive | inactive
Cc1nnc(NCc2cccc(Cl)c2)c2ccccc12 | inactive | inactive
Cc1cc(NCCc2ccccc2)nc(NC(=N)Nc2ccc(Cl)cc2)n1 | inactive | inactive
Cc1cc2nc(NC(=O)C(C)(C)C)nc(Cl)c2n1Cc1ccc(Cl)cc1 | inactive | inactive
O=C([C@@H](c1ccc(Cl)cc1)c1cccnc1)N1CCN(c2ccc(C(F)(F)F)cc2)CC1 | inactive | inactive
CN1CCC(c2cc(-c3ccncc3)c(-c3ccc(F)cc3)[nH]2)CC1 | inactive | inactive
Clc1ccc(CCNc2cc(-c3ccccc3)nc3ncnn23)cc1 | inactive | inactive
COc1ccc(-c2cc(NC(=O)c3ccc(F)cc3Cl)ccc2OC)cc1 | inactive | inactive

SMILES | inhibition [1] | inhibition [2]
O=C(NCCc1c[nH]c2ccccc12)c1cc2ccccc2oc1=O | inactive | inactive
Cc1cc(OCC(=O)Nc2ccc(C(C)C)cc2)n(C)c(=O)c1C#N | inactive | inactive
Nc1ncc(Br)cc1-c1nc2cc(Cl)cnc2[nH]1 | inactive | inactive
CNC1C(OC2C(OC3C(O)C(O)C(N=C(N)N)C(O)C3N=C(N)N)OC(C)C2(O)C=O)OC(CO)C(O)C1O (configuration not stated) | inactive | inactive
COc1ccc(N(CCc2cccc(C)n2)C(=O)C2CCCCC2)cc1 | inactive | inactive
CC(C)C(NC(=O)Cc1cccc2ccccc12)C(=O)Nc1cccc(C#N)c1 (configuration not stated) | inactive | inactive
O=C(NCc1cc(Cl)cc(Cl)c1)c1c(C(F)(F)F)nc2ccccn12 | inactive | inactive
N#Cc1ccc(-c2cnc(N)c(-c3ccc(C(N)=O)cc3)n2)cc1 | inactive | inactive
Cc1[nH]c2ccccc2c1C(c1cccs1)N1CCN(C)CC1 (configuration not stated) | inactive | inactive
Cc1nn(Cc2ccccc2)c(Cl)c1C(=O)NC1CCCCCC1 | inactive | inactive
OC[C@H]1O[C@@H](n2c3ccc(Cl)cc3c3c(-c4cc5ccccc5o4)ncnc32)C(O)[C@H]1O (some centres not stated) | inactive | inactive
CC(C)(C)OC(=O)N1CCC(Cn2nc(-c3cnc4ccccc4c3)c3c(N)ncnc32)CC1 | inactive | inactive
Nc1nc2cc(-c3cncc(Oc4ccc(F)cc4)c3)ccc2[nH]1 | inactive | inactive
N#Cc1ccc(-c2ccc(OCC(N)=O)cc2)cc1 | inactive | inactive
NS(=O)(=O)c1cncc(-c2ccc3nccc(-c4cn[nH]c4)c3n2)c1 | inactive | inactive
Nc1ncc(-c2cn[nH]c2)cc1-c1nc2cc(Cl)cnc2[nH]1 | inactive | inactive
COc1cccc(OCC(=O)c2ccc(Br)cc2)c1 | inactive | inactive
O=C(C1CCN(c2nnnn2-c2ccccc2)CC1)N1CCc2ccccc2C1 | inactive | inactive
O=C(CN1CCOCC1)Nc1ccc2ncnc(Nc3ccc(OCc4cccc(F)c4)c(Cl)c3)c2c1 | inactive | inactive
O=C1O[C@@H](CO)CN1c1cc(F)c(C2=CCN(Cc3ccccc3)CC2)c(F)c1 | inactive | inactive
CC(C)(C)n1nc(-c2ccccc2)c2c(N)ncnc21 | inactive | inactive
c1ccc2c(c1)CN(CC1CC1)CC1(CCN(Cc3c[nH]c4cnccc34)CC1)O2 | inactive | inactive

SMILES | inhibition [1] | inhibition [2]
O=C(NCCc1ccn(-c2ccccc2)n1)C1CCCCC1 | inactive | inactive
Cc1cc(C(=O)Nc2ccc(-c3ccccc3)cc2)no1 | inactive | inactive
Nc1c2c(nc3sc4c(c13)CCCC4)CCCC2 | inactive | inactive
c1csc(-c2cnc3sc(NCC4CCOCC4)nn23)c1 | inactive | inactive
CC(C)/N=c1\cc2n(-c3ccc(Cl)cc3)c3ccccc3nc-2cc1Nc1ccc(Cl)cc1 | inactive | inactive
Cc1cc(C)n(-c2ccc(NC(=O)C3CCN(Cc4cnc(C)s4)CC3)cc2)n1 | inactive | inactive
Cc1[nH]c2cc(F)cc(F)c2c(=O)c1-c1ccc(Oc2ccc(OC(F)(F)F)cc2)cc1 | inactive | inactive
Cc1cnc(N2CCN[C@@H](Cc3ccccc3)C2)nc1Oc1ccc(-n2ccnc2)cc1 | inactive | inactive
COc1cccn2c(C(=O)N3CCCCC3)c(C(F)(F)F)nc12 | inactive | inactive
C[C@]1(O)C[C@@H](c2nc(-c3ccc4ccc(-c5ccccc5)nc4c3)c3c(N)nccn32)C1 | inactive | inactive
CC(C)n1nc(-c2cc3c(Cl)cccc3[nH]2)c2c(N)ncnc21 | inactive | inactive
COc1cc2ncnc(NC3CCN(Cc4ccccc4)CC3)c2cc1OC | inactive | inactive
Cc1ccc2[nH]c(C3CCCNC3)c(-c3ccncc3)c2c1 (configuration not stated) | inactive | inactive
Cc1cc(C)nc(-n2nc(C)cc2Nc2ccccc2)n1 | inactive | inactive
Cc1ncc(-c2ccnc(Nc3ccc(S(C)(=O)=O)cc3)n2)n1C(C)C | inactive | inactive
CCc1nn(C)c(C(=O)NCc2ccc(Oc3ccc(C)cc3)cc2)c1Cl | inactive | inactive
CC1CC1C(=O)NC1CCN(CC2(c3ccccc3)CCCCC2)CC1 (configuration not stated) | inactive | inactive
CC(C)C(Oc1cccc2ccccc12)C(=O)O (configuration not stated) | inactive | inactive
COc1ccc(-c2cncc3ccc(C(=O)NCCCn4ccnc4)nc23)cc1 | inactive | inactive
CC(=O)Oc1ccccc1C(=O)Nc1ncc([N+](=O)[O-])s1 | inactive | inactive
Nc1ncnc2c1ncn2C[C@@H](O)[C@@H](O)C(=O)O | inactive | inactive
O=C(NCc1ccco1)N1CCN(Cc2ccc(Cl)s2)CC1 | inactive | inactive
